ChEMBL document CHEMBL1201862, “PubChem BioAssay data set” (2004)
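Cells were grown in 96-well plates and exposed to each compound for 48 hours at five concentrations; endpoints were interpolated linearly between bracketing concentrations, or set to the highest concentration if not reached. GI50 is the concentration that inhibits growth by half.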 Activity calls are given as the source filed them. Rule as the data show it: active = GI50 up to about 1.1 µM and inactive = higher.

How the values were obtained:
Test in all cases: DTP human tumour cell line panel, 48 h
CCRF-CEM = system: CCRF-CEM
COLO 205 = system: COLO 205
HCC 2998 = system: HCC 2998
HT-29 = system: HT-29
IGROV-1 = system: IGROV-1
KM12 = system: KM12
LOX IMVI = system: LOX IMVI
MDA-MB-231 = system: MDA-MB-231
NCI-H23 = system: NCI-H23
NCI/ADR-RES = system: NCI/ADR-RES
OVCAR-4 = system: OVCAR-4
PC-3 = system: PC-3
SF-295 = system: SF-295
SK-MEL-2 = system: SK-MEL-2
SK-MEL-5 = system: SK-MEL-5
SN12C = system: SN12C
SNB-75 = system: SNB-75
SW-620 = system: SW-620
T47D = system: T47D
TK-10 = system: TK-10

Row | SMILES | GI50 (CCRF-CEM) | GI50 (COLO 205) | GI50 (HCC 2998) | GI50 (HT-29) | GI50 (IGROV-1) | GI50 (KM12) | GI50 (LOX IMVI) | GI50 (MDA-MB-231) | GI50 (NCI-H23) | GI50 (NCI/ADR-RES) | GI50 (OVCAR-4) | GI50 (PC-3) | GI50 (SF-295) | GI50 (SK-MEL-2) | GI50 (SK-MEL-5) | GI50 (SN12C) | GI50 (SNB-75) | GI50 (SW-620) | GI50 (T47D) | GI50 (TK-10)
1 | O=C(N/C(=C\c1ccccc1)c1nc2ccccc2c(=O)o1)c1ccccc1 | > 100 µM (inactive) | > 100 µM (inactive) | > 100 µM (inactive) | > 100 µM (inactive) | 31.4 µM (inactive) | 7.96 µM (inactive) | 27.3 µM (inactive) | > 38.3 µM (inactive) | 46.3 µM (inactive) | 33.4 µM (inactive) | > 88.5 µM (inactive) | > 100 µM (inactive) | 36.2 µM (inactive) | > 100 µM (inactive) | > 100 µM (inactive) | > 86.7 µM (inactive) | 20.4 µM (inactive) | > 88.3 µM (inactive) | > 28.6 µM (inactive) | > 100 µM (inactive)
2 | [O-]c1c[n+](CC[n+]2cc([O-])on2)no1 | > 100 µM (inactive) | > 100 µM (inactive) | > 100 µM (inactive) | > 100 µM (inactive) | > 100 µM (inactive) | > 100 µM (inactive) | > 100 µM (inactive) | > 100 µM (inactive) | > 100 µM (inactive) | > 100 µM (inactive) | > 100 µM (inactive) | > 100 µM (inactive) | > 100 µM (inactive) | > 100 µM (inactive) | > 100 µM (inactive) | > 100 µM (inactive) | > 100 µM (inactive) | > 100 µM (inactive) | > 100 µM (inactive) | > 100 µM (inactive)
3 | OC1C[C@H](c2ccccc2)C2(C(O)c3ccccc3C2O)[C@@H](c2ccccc2)C1 (stereo not given in full) | 99.1 µM (inactive) | > 100 µM (inactive) | > 100 µM (inactive) | > 100 µM (inactive) | > 100 µM (inactive) | > 100 µM (inactive) | 40.2 µM (inactive) | > 100 µM (inactive) | > 100 µM (inactive) | 14.3 µM (inactive) | > 100 µM (inactive) | > 100 µM (inactive) | > 100 µM (inactive) | > 100 µM (inactive) | > 100 µM (inactive) | > 100 µM (inactive) | 53.7 µM (inactive) | > 100 µM (inactive) | > 100 µM (inactive) | > 100 µM (inactive)
4 | Nc1cc2c(c3ccccc13)C(CCl)CN2C(=O)c1cc2cc(NC(=O)c3cc4ccccc4o3)ccc2[nH]1 (stereo not given) | 0.00194 µM (active) | 0.0056 µM (active) | 0.00307 µM (active) | 0.00144 µM (active) | 0.00578 µM (active) | 0.00296 µM (active) | 0.00262 µM (active) | 0.0221 µM (active) | 0.000551 µM (active) | 0.00136 µM (active) | 0.00209 µM (active) | 0.00513 µM (active) | 0.11 µM (active) | 0.00286 µM (active) | 0.000787 µM (active) | 0.00345 µM (active) | 0.00294 µM (active) | 0.00456 µM (active) | 0.00158 µM (active) | 0.00429 µM (active)
5 | COc1cc(/C=C2\CCC(C)C3=C(c4cc(OC)c(OC)c(OC)c4)C(C#N)=C(N)OC32)cc(OC)c1OC (stereo not given) | 2.05 µM (inactive) | 2.11 µM (inactive) | 4.16 µM (inactive) | 2 µM (inactive) | 4.94 µM (inactive) | 3.86 µM (inactive) | 2 µM (inactive) | 2.45 µM (inactive) | 3.72 µM (inactive) | 3.74 µM (inactive) | 2.97 µM (inactive) | 1.83 µM (inactive) | 3.65 µM (inactive) | 2.09 µM (inactive) | 2.61 µM (inactive) | 3.21 µM (inactive) | 1.36 µM (inactive) | 3.97 µM (inactive) | 2.1 µM (inactive) | 4.21 µM (inactive)
